Like-named read-outs stand apart in the source and are kept apart here.
Biological target: T1, human TRPM8 (Homo sapiens, UniProt Q7Z2W7)
T1 construct: expressed in transfected cells
Assay: Automated patch clamp (IonFlux 16) of menthol-evoked TRPM8 currents in HEK293 cells stably expressing human TRPM8
Assay type: cell-based
Experimental: HEK293 cells, stably expressing human TRPM8 (GenBank number NM_024080), were cultured in T75 tissue culture flasks using Dulbecco’s modified Eagle medium (Euroclone, Pero, Italy), supplemented with 10% FBS (Euroclone, Pero, Italy) plus Geneticin (Sigma-Aldrich, St. Louis, MI, USA) 800 μg/mL at 37° C, in a humidified 5% CO2 atmosphere. The cells were maintained until they reached 70~80% confluency. Prior to use, the cells were washed twice with Ca^2+ and Mg^2+ free PBS (Euroclone, Pero, Italy), subsequently detached using Accutase (Euroclone, Pero, Italy), and kept in suspension using CHO-SFM-II medium (Gibco, by Thermo Fisher Scientific, Carlsbad, CA, USA). The cells were then resuspended in the external solution after a centrifugation at 1000 rpm for 2 min. Single-cells suspension, with a final concentration of 3–5 million cells/mL, was required for the automated patch clamp electrophysiology procedure.
We performed automated patch clamp recordings by using the IonFlux 16 system (Fluxion Biosciences, Alameda, CA, USA). The procedure includes four automated phases—prime, trap, break, and data acquisition—in the whole-cells voltage clamp. The cells were voltage clamped at a holding potential of −60 mV, stepped to −100 mV, ramped to +100 mV in 200 ms, and finally stepped back to −60 mV. Voltage command was executed every 5 s, and currents were recorded with a sampling rate of 5 kHz. […] The interval range between each application was 90 s, and intervals included washing cells with an external solution-containing vehicle. However, the duration of each application was adjusted based on each drug’s lipophilicity and kinetic of inhibition. For leakage subtraction, leakage was measured by applying a short 20 mV pulse (typically from −80 mV to −100 mV) at the beginning of each sweep to measure the current difference. By assuming linear leakage and subtracting proportional currents from each of the different voltage command segments, the software performs automatic leakage subtraction. […] The extracellular solution contained 140 mM NaCl, 4 mM KCl, 1 mM MgCl2, 10 mM glucose, and 10 mM HEPES, pH 7.4 with NaOH and 310 mOsm. We removed Ca^2+ from the external solution to avoid the Ca^2+-dependent desensitization of TRPM8. The intracellular solution contained the following (mM): 60 CsCl, 70 CsF, 5 Na2ATP, 10 HEPES, and 10 EGTA, pH 7.2 with CSOH and 295 mOsm. All recordings were performed at a temperature of 20 ± 1 °C.
All compounds were obtained from Sigma-Aldrich. Stock solutions were prepared in 50 mM of dimethyl sulfoxide (DMSO) and stored at −20° C.
The analysis of the data was carried out using the ‘data analyzer software’ (Data Analyzer v. 5.0 (beta), Fluxion Biosciences, Alameda, CA, USA), Microsoft Excel 365, and the Prism 9.0 software (GraphPad Software Inc., San Diego, CA, USA). The average current density of the last three recordings at +80 mV in each application period was used as the current amplitude.
IC50 and EC50 were calculated by fitting the four-parameter Hill equation using GraphPad Prism.
Four-parameter Hill equation: f(x)=Imin+(Imax−Imin/1+(C50/x)^h)
Data are expressed as the mean ± standard deviation (SD).

[1] = HEK293; read-out: Average Percentage Inhibition at 10 µM
[2] = at concentrations higher than 50 µM
[3] = at concentrations higher than IC50, prolonged washing, data not shown
[4] = read-out: IC50, inhibition of menthol-induced TRPM8 current

T1 sequence (Q7Z2W7 whole entry): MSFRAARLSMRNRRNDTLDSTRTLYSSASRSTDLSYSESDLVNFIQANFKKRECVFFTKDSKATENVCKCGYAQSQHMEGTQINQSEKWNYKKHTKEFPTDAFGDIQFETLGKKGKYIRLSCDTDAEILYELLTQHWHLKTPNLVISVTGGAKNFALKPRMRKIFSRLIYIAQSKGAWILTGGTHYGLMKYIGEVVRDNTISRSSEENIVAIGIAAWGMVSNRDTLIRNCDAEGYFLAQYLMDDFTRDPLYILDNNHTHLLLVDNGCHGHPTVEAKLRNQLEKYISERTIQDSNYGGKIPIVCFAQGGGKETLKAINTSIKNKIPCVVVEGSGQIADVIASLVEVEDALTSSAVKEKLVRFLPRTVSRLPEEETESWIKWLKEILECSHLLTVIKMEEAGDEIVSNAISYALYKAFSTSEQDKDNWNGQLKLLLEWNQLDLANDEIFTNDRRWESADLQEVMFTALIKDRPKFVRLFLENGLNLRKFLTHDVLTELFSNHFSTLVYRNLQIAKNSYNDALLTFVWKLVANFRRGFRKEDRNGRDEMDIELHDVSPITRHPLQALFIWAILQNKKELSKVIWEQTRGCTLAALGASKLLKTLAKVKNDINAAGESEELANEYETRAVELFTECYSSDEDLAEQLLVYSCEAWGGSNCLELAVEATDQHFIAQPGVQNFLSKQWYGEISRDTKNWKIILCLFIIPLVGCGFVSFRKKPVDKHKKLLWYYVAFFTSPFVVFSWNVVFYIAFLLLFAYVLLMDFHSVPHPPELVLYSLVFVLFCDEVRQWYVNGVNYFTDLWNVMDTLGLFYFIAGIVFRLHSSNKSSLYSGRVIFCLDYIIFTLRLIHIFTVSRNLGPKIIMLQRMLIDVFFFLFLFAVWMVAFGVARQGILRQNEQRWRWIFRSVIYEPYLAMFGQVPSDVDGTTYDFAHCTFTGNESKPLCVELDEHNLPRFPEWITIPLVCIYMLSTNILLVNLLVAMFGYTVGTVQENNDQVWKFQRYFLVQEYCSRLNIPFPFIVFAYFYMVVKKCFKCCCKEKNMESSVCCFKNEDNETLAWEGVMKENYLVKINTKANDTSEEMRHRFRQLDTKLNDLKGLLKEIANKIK

| SMILES | inhibition at 10 µM [1] [%] | other results |
| --- | --- | --- |
| CCCCNc1ccc(C(=O)OCCN(C)C)cc1 [Tetracaine, tetracaine] | 0 |  |
| CC(C)NCC(O)COc1ccc(CC(N)=O)cc1 (stereo not drawn) [Atenolol, atenolol] | 0 |  |
| Cc1cccc(COc2ccccc2C(=O)N(CCCN)Cc2cccs2)c1.Cl [AMTB, N-(3-Aminopropyl)-2-[(3-methylphenyl)methoxy]-N-(2-thienylmethyl)benzamide hydrochloride] |  | Block of menthol-activated currents (1 µM AMTB): fully blocked |
| NC(=O)c1cn(Cc2c(F)cccc2F)nn1 [Rufinamide, rufinamide] | 0 |  |
| O=C1NC(=O)C(c2ccccc2)(c2ccccc2)N1 [Phenytoin, phenytoin] | 0 | Block of outward TRPM8 currents induced by menthol [2]: partial block |
| Nc1nnc(-c2cccc(Cl)c2Cl)c(N)n1 [Lamotrigine, lamotrigine] | 0 |  |
| NC(=O)N1c2ccccc2C=Cc2ccccc21 [Carbamazepine, carbamazepine] | 0 |  |
| CCCC(=O)Nc1ccc(OCC(O)CNC(C)C)c(C(C)=O)c1 (stereo not drawn) [Acebutolol, acebutolol] | 0 |  |
| Nc1nc2ccc(OC(F)(F)F)cc2s1 [Riluzole, riluzole] | 0 |  |
| NCC1(CC(=O)O)CCCCC1 [Gabapentin, gabapentin] |  | inhibition at 10 µM (HEK293, read-out: Average Percentage Inhibition at 10 µM): 0% |
| OC(CNCC(O)C1CCc2cc(F)ccc2O1)C1CCc2cc(F)ccc2O1 (stereo not drawn) [Nebivolol, nebivolol] | 100 | Reversibility of the inhibiting effect on washing [3]: irreversible inhibiting effect; Inhibitory effect of nebivolol compared with carvedilol (electrophysiological data): ten times stronger; IC50 [4]: 0.97 ± 0.15 µM; Blocking effect on TRPM8 menthol-evoked currents (β-blocker screen): showed a blocking effect |
| O=C(NCC1CCCCN1)c1cc(OCC(F)(F)F)ccc1OCC(F)(F)F (stereo not drawn) [Flecainide, flecainide] | 0 | Block of outward TRPM8 currents induced by menthol [2]: partial block |
| CC(C)NCC(O)COc1cccc2ccccc12 (stereo not drawn) [Propranolol, propranolol] | 12 | IC50 [4]: 45 ± 7 µM; Blocking effect on TRPM8 menthol-evoked currents (β-blocker screen): showed a blocking effect |
| Cc1cccc(C)c1OCC(C)N (stereo not drawn) [Mexiletine, mexiletine] | 0 |  |
| NC(=O)N1c2ccccc2CC(=O)c2ccccc21 [Oxcarbazepine, oxcarbazepine] | 0 |  |
| COc1ccccc1OCCNCC(O)COc1cccc2[nH]c3ccccc3c12 (stereo not drawn) [Carvedilol, carvedilol] | 57 | Reversibility of the inhibiting effect on washing [3]: irreversible inhibiting effect; IC50 [4]: 9.1 ± 0.6 µM; Blocking effect on TRPM8 menthol-evoked currents (β-blocker screen): showed a blocking effect |
| COc1ccccc1OCC(O)CN1CCN(CC(=O)Nc2c(C)cccc2C)CC1 (stereo not drawn) [Ranolazine, ranolazine] | 0 |  |
| CCCNCC(O)COc1ccccc1C(=O)CCc1ccccc1 (stereo not drawn) [Propafenone, propafenone] | 26 | Block of outward TRPM8 currents induced by menthol (below 50 µM): significant blocking capacity; IC50 [4]: 16.8 ± 5 µM |
| COCCc1ccc(OCC(O)CNC(C)C)cc1 (stereo not drawn) [Metoprolol, metoprolol] | 0 |  |
| CC(C)(C)NCC(O)COc1cccc2c1CC(O)C(O)C2 (stereo not drawn) [Nadolol, nadolol] | 0 |  |

— publication PMC9609861, “Nebivolol as a Potent TRPM8 Channel Blocker: A Drug-Screening Approach through Automated Patch Clamping and Ligand-Based Virtual Screening” (Membranes, 2022)
